Reference: patent publication US9896445B2, “Heterocyclic inhibitors of ERK1 and ERK2 and their use in the treatment of cancer” (Asana Biosciences, LLC, priority 2015, dated 2018)

Assays:
[1] = molecular target: T1, ERK1 (Homo sapiens, UniProt P27361); experiment: ERK1 HTRF (biochemical) assay
T1 construct: purchased Jubilant Biosys
Procedure: ERK1 and ERK2 HTRF (Biochemical) Assays
These assays employed a homogeneous time resolved fluorescence (HTRF) technique. […] The plate was incubated at room temperature for 60 min with shaking. […] The IC50 values (half maximal inhibitory concentration values) were subsequently determined using a sigmoidal dose-response curve (variable slope) in GraphPad Prism® 5 software.

[2] = molecular target: T2, ERK2 (Homo sapiens, UniProt P28482); experiment: ERK2 HTRF (biochemical) assay
T2 construct: purchased Jubilant Biosys
T2 sequence (P28482 whole entry): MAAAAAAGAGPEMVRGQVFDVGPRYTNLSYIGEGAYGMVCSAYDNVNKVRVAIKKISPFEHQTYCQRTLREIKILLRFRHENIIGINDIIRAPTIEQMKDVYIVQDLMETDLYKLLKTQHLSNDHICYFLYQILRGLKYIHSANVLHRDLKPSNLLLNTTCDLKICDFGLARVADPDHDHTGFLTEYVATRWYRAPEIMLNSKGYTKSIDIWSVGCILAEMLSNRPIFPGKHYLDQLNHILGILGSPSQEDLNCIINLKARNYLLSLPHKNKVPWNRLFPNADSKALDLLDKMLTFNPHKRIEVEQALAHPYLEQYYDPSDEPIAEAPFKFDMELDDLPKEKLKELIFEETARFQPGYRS
Method in brief: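 Readout was time-resolved FRET between europium anti-phospho-MBP and streptavidin-APC after a 60-min room-temperature kinase step. That step used ERK2 (25 nM in enzyme mix), biotinylated MBP peptide (1 uM) and ATP (24 uM) from the substrate mix, in pH 7.5 Tris buffer.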

T1 sequence (P27361 whole entry): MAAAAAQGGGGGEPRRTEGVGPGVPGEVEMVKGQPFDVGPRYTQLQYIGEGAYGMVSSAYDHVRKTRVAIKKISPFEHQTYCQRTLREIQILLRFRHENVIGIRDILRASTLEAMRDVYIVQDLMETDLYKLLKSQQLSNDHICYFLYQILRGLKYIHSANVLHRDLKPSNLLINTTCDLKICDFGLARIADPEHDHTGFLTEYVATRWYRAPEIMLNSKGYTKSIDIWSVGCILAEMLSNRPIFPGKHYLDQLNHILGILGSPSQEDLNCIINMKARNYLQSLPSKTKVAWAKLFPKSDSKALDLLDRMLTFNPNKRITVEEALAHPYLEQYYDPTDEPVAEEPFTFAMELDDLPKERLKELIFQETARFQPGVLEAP

Row | SMILES | IC50 ([1]; HTRF) [nM] | IC50 ([2]; HTRF) [nM] | IC50 ([1]; HTRF biochemical assay) [nM] | IC50 ([2]; HTRF biochemical assay) [nM]
1 | Cc1cnc(NCC2CCCO2)nc1-n1ccc(C(=O)N[C@H](CO)c2cccc(Cl)c2)c1 (stereo partly drawn) [Compound 190, N-((S)-1-(3-chlorophenyl)-2-hydroxyethyl)-1-(5-methyl-2-(((tetrahydrofuran-2-yl)methyl)-amino)pyrimidin-4-yl)-1H-pyrrole-3-carboxamide] | < 50 | 50 to 100 |  | 
2 | Cc1cnc(Nc2ccc3c(c2)OCO3)nc1-n1ccc(C(=O)NC(CO)c2cc(Cl)cc(Cl)c2)c1 (centres unmarked) [Compound 58, 1-(2-(benzo[d][1,3]dioxol-5-ylamino)-5-methylpyrimidin-4-yl)-N-(1-(3,5-dichlorophenyl)-2-hydroxyethyl)-1H-pyrrole-3-carboxamide] | < 50 | ≤ 50 |  | 
3 | Cc1cnc(Nc2ccc3occc3c2)nc1-n1ccc(C(=O)NC(CO)c2cccc(Cl)c2)c1 (centres unmarked) [Compound 68, 1-(2-(benzofuran-5-ylamino)-5-methylpyrimidin-4-yl)-N-(1-(3-chlorophenyl)-2-hydroxyethyl)-1H-pyrrole-3-carboxamide] | < 50 | ≤ 50 |  | 
4 | Cc1cnc(Nc2ccc(N3CCNCC3)cc2)nc1-n1ccc(C(=O)NC(CO)c2ccccc2)c1 (centres unmarked) [Compound 73, N-(2-hydroxy-1-phenylethyl)-1-(5-methyl-2-((4-(piperazin-1-yl)-phenyl)amino)pyrimidin-4-yl)-1H-pyrrole-3-carboxamide] | < 50 | ≤ 50 |  | 
5 | Cc1cnc(Nc2ccc3c(c2)OCO3)nc1-n1cnc(C(=O)NC(CN)c2cc(F)cc(Cl)c2)c1 (centres unmarked) [Example 269, N-(2-amino-1-(3-chloro-5-fluorophenyl)ethyl)-1-(2-(benzo[d][1,3]dioxol-5-ylamino)-5-methylpyrimidin-4-yl)-1H-imidazole-4-carboxamide] | < 50 | ≤ 50 |  | 
6 | Cc1cnc(Nc2ccc(F)cc2Cl)cc1-n1ccc(C(=O)NC(CO)c2ccccc2)c1 (centres unmarked) [Compound 78, 1-(2-((2-chloro-4-fluorophenyl)amino)-5-methylpyridin-4-yl)-N-(2-hydroxy-1-phenylethyl)-1H-pyrrole-3-carboxamide] | < 50 | ≤ 50 |  | 
7 | Cc1cnc(Nc2ccc3c(c2)OCO3)nc1-n1cc(NC(=O)NC(CO)c2cccc(Cl)c2)cn1 (centres unmarked) [Compound 37, 1-(1-(2-(benzo[d][1,3]dioxol-5-ylamino)-5-methylpyrimidin-4-yl)-1H-pyrazol-4-yl)-3-(1-(3-chlorophenyl)-2-hydroxyethyl)urea] | 100 to 500 | ≤ 50 |  | 
8 | Cc1cnc(Nc2ccccc2)cc1-n1cnc(C(=O)NC(CO)c2ccccc2)c1 (centres unmarked) [Compound 89, N-(2-hydroxy-1-phenylethyl)-1-(5-methyl-2-(phenyl-amino)pyridin-4-yl)-1H-imidazole-4-carboxamide] | 100 to 500 | ≤ 50 |  | 
9 | O=C(Nc1cnn(-c2ccnc(Nc3ccccc3)n2)c1)N[C@H](CO)c1cccc(Cl)c1 [Compound 12, (S)-1-(1-(3-chlorophenyl)-2-hydroxyethyl)-3-(1-(2-(phenyl-amino)pyrimidin-4-yl)-1H-pyrazol-4-yl)urea] | < 50 | ≤ 50 |  | 
10 | Cc1cnc(N[C@H]2CCOC2)nc1-n1ccc(C(=O)NC(CO)c2ccc(F)cc2)c1 (stereo partly drawn) [Compound 204, N-(1-(4-fluoro-phenyl)-2-hydroxy-ethyl)-1-(5-methyl-2-(((S)-tetrahydro-furan-3-yl)amino)-pyrimidin-4-yl)-1H-pyrrole-3-carboxamide] | 50 to 100 | 50 to 100 |  | 
11 | Cc1cnc(Nc2ccc3c(c2)OCO3)nc1-n1ccc(C(=O)N[C@H](CO)Cc2ccccc2)c1 [Compound 59, (S)-1-(2-(benzo[d][1,3]dioxol-5-ylamino)-5-methylpyrimidin-4-yl)-N-(1-hydroxy-3-phenylpropan-2-yl)-1H-pyrrole-3-carboxamide] | 50 to 100 | ≤ 50 |  | 
12 | Cc1cnc(N[C@H]2CCOC2)nc1-n1cnc(C(=O)NCc2cc(Cl)cc(Cl)c2)c1 [Example 313, (S)-N-(3,5-dichloro-benzyl)-1-(5-methyl-2-((tetrahydrofuran-3-yl)amino)-pyrimidin-4-yl)-1H-imidazole-4-carboxamide] |  |  | < 50 | ≤ 50
13 | O=C(NC(CO)c1ccccc1)c1ccn(-c2ccnc(NC3CCOC3)c2)c1 (centres unmarked) [Compound 189, N-(2-hydroxy-1-phenylethyl)-1-(2-((tetrahydrofuran-3-yl)amino)pyridin-4-yl)-1H-pyrrole-3-carboxamide] | 100 to 500 | 500 to 2500 |  | 
14 | Cc1cnc(NC2CCOCC2)nc1-n1cnc(C(=O)NCc2cccc(CO)c2Cl)c1 [Example 335, N-(2-chloro-3-(hydroxymethyl)-benzyl)-1-(5-methyl-2-((tetrahydro-2H-pyran-4-yl)amino)-pyrimidin-4-yl)-1H-imidazole-4-carboxamide] |  |  | < 50 | ≤ 50
15 | Cc1cnc(Nc2ccc3c(c2)CC(=O)N3)nc1-n1ccc(C(=O)NC(CO)c2cccc(Cl)c2)c1 (centres unmarked) [Compound 198, N-(1-(3-chloro-phenyl)-2-hydroxy-ethyl)-1-(5-methyl-2-((2-oxoindolin-5-yl)amino)pyrimidin-4-yl)-1H-pyrrole-3-carboxamide] | < 50 | ≤ 50 |  | 
16 | COc1cc(F)ccc1Nc1ncc(C)c(-n2ccc(C(=O)NC(CO)c3cccc(Cl)c3)c2)n1 (centres unmarked) [Compound 142, N-(1-(3-chloro-phenyl)-2-hydroxy-ethyl)-1-(2-((4-fluoro-2-methoxy-phenyl)amino)-5-methylpyrimidin-4-yl)-1H-pyrrole-3-carboxamide] | < 50 | ≤ 50 |  | 
17 | Cc1cnc(Nc2ccc3c(c2)OCO3)nc1-n1cnc(C(=O)N[C@H](CO)c2cccc(Cl)c2)c1 [Compound 48, (S)-1-(2-(benzo[d][1,3]dioxol-5-ylamino)-5-methylpyrimidin-4-yl)-N-(1-(3-chloro-phenyl)-2-hydroxy-ethyl)-1H-imidazole-4-carboxamide] | < 50 | ≤ 50 |  | 
18 | COC[C@@H](NC(=O)c1ccn(-c2nc(Nc3ccc4c(c3)OCO4)ncc2C)c1)c1ccccc1 [Compound 64, (S)-1-(2-(benzo[d][1,3]dioxol-5-ylamino)-5-methylpyrimidin-4-yl)-N-(2-methoxy-1-phenylethyl)-1H-pyrrole-3-carboxamide] | < 50 | ≤ 50 |  | 
19 | Cc1cnc(N[C@H]2CC[C@H](O)CC2)nc1-n1cnc(C(=O)N[C@H](CO)c2cccc(Cl)c2)c1 [Compound 242, N-((S)-1-(3-chlorophenyl)-2-hydroxyethyl)-1-(2-(((1r,4S)-4-hydroxycyclohexyl)amino)-5-methyl-pyrimidin-4-yl)-1H-imidazole-4-carboxamide] | < 50 | ≤ 50 |  | 
20 | Cc1cnc(Nc2ccc3c(c2)OCO3)nc1-n1ccc(C(=O)NC(CO)c2cccc(Cl)c2)c1 (centres unmarked) [Compound 42, 1-(2-(benzo[d][1,3]dioxol-5-ylamino)-5-methylpyrimidin-4-yl)-N-(1-(3-chloro-phenyl)-2-hydroxy-ethyl)-1H-pyrrole-3-carboxamide] | < 50 | ≤ 50 |  | 
21 | Cc1cnc(NC2CCOCC2)nc1-n1cnc(C(=O)NC(CN)c2cccc(Cl)c2)c1 (racemic) [Compound 225, N-(2-Amino-1-(3-chlorophenyl)ethyl)-1-(5-methyl-2-((tetrahydro-2H-pyran-4-yl)amino)pyrimidin-4-yl)-1H-imidazole-4-carboxamide] | < 50 | ≤ 50 |  | 
22 | Cc1cnc(N[C@@H]2CCOC2)nc1-n1cnc(C(=O)N[C@H](CO)c2cccc(Cl)c2)c1 [Example 265, N-((S)-1-(3-chlorophenyl)-2-hydroxyethyl)-1-(5-methyl-2-(((R)-tetrahydrofuran-3-yl)amino)pyrimidin-4-yl)-1H-imidazole-4-carboxamide] | < 50 | ≤ 50 |  | 
23 | Cc1cn(-c2nc(Nc3ccc(F)cc3)ncc2C)cc1C(=O)NC(CO)c1cccc(Cl)c1 (centres unmarked) [Compound 107, N-(1-(3-chlorophenyl)-2-hydroxyethyl)-1-(2-((4-fluoro-phenyl)amino)-5-methylpyrimidin-4-yl)-4-methyl-1H-pyrrole-3-carboxamide] | < 50 | ≤ 50 |  | 
24 | Cc1cnc(Nc2ccccc2)cc1-n1cnc(C(=O)NC(CO)c2cccc(Cl)c2)c1 (centres unmarked) [Compound 180, N-(1-(3-chloro-phenyl)-2-hydroxyethyl)-1-(5-methyl-2-(phenyl-amino)pyridin-4-yl)-1H-imidazole-4-carboxamide] | < 50 | ≤ 50 |  | 
25 | O=C(NC(CO)c1ccccc1)c1ccn(-c2ccnc(Nc3ccc4c(c3)OCO4)c2)c1 (centres unmarked) [Compound 76, 1-(2-(benzo[d][1,3]dioxol-5-ylamino)pyridin-4-yl)-N-(2-hydroxy-1-phenylethyl)-1H-pyrrole-3-carboxamide] | < 50 | ≤ 50 |  | 
26 | CCC(COC)Nc1ncc(C)c(-n2ccc(C(=O)NC(CO)c3cccc(Cl)c3)c2)n1 (centres unmarked) [Compound 127, N-(1-(3-chloro-phenyl)-2-hydroxy-ethyl)-1-(2-((1-methoxybutan-2-yl)amino)-5-methylpyrimidin-4-yl)-1H-pyrrole-3-carboxamide] | < 50 | ≤ 50 |  | 
27 | Cc1cnc(Nc2ccc3c(c2)OC(F)(F)O3)nc1-n1ccc(C(=O)NC(CN)c2cccc(Cl)c2)c1 (centres unmarked) [Compound 136, N-(2-amino-1-(3-chlorophenyl)ethyl)-1-(2-((2,2-difluorobenzo[d][1,3]dioxol-5-yl)amino)-5-methylpyrimidin-4-yl)-1H-pyrrole-3-carboxamide] | 50 to 100 | ≤ 50 |  | 
28 | CCC(=O)OCc1c(Cl)cccc1CNC(=O)c1cn(-c2nc(NC3CCOCC3)ncc2C)cn1 [Example 348, 2-chloro-6-((1-(5-methyl-2-((tetrahydro-2H-pyran-4-yl)amino)-pyrimidin-4-yl)-1H-imidazole-4-carboxamido)-methyl)benzyl-propionate] |  |  | < 50 | ≤ 50
